Data published in patent publication US20110045101A1, “FUNGICIDAL SUBSTITUTED AZOLES” (E.I. Du Pont De Nemours and Company, priority 2009, published 2011).
Marks after values point to notes of the source that are not given here.

Key:
Type in all cases: in vivo
Settings in all cases: 100 = 100% disease control
[1] = tested on: Puccinia recondita f. sp. tritici; test: Test H: wheat leaf rust, test suspension sprayed after inoculation of wheat seedlings, visual disease rating
Procedure, shortened: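 Wheat seedlings inoculated with P. recondita spores, held 24 h saturated at 20 °C, then 2 days in growth chamber at 20 °C; compound suspension (acetone/water with Trem 014) sprayed to run-off afterwards. Rated visually; 200 ppm (≈500 g/ha) unless marked *, which denotes 40 ppm.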

Septoria nodorum = test: Test F: wheat glume blotch on wheat seedlings, sprayed the day before inoculation, visual disease rating
Procedure, shortened: (§1)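 Ratings reflect a 200 ppm spray (≈500 g/ha) unless marked as 40 ppm. Plants were sprayed to run-off. The spray suspension was acetone/purified water 50/50 containing 250 ppm Trem 014, after first dissolving compound in acetone at 3% of final volume.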

Septoria tritici = test: Test G: wheat leaf blotch on wheat seedlings, sprayed the day before inoculation, visual disease rating
Procedure, shortened: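 Visual disease ratings taken 19 days after transfer to a 20° C growth chamber, following 48 h in saturated atmosphere at 24° C. Seedlings had been sprayed to run-off one day before spore inoculation. Dose 200 ppm, or 40 ppm where starred.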

[2] = tested on: Erysiphe graminis f. sp. tritici; test: Test J: wheat powdery mildew on wheat seedlings, sprayed the day before inoculation, visual disease rating
Procedure, shortened: as §1

[3] = tested on: Puccinia recondita f. sp. tritici; test: Test I: wheat leaf rust on wheat seedlings, sprayed the day before inoculation, visual disease rating
Procedure, shortened: as §1

Alternaria solani = test: Test D: tomato early blight, sprayed the day before inoculation, visual disease rating
Procedure, shortened: as §1

Botrytis cinerea = test: Test C: tomato Botrytis on tomato seedlings, sprayed the day before inoculation, visual disease rating
Procedure, shortened: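 Disease scored by eye on tomato seedlings inoculated with Botrytis cinerea a day after treatment. Treatment was a run-off spray at 200 ppm (equivalent to 500 g/ha), or 40 ppm where marked, in acetone/water carrying 250 ppm Trem 014.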

[4] = 200 ppm, 0 = no control relative to controls
[5] = 40 ppm (marked *), 0 = no control

| SMILES | Test H disease control rating [1, 4] | Test F disease control rating (Septoria nodorum; [4]) | Test G disease control rating (Septoria tritici; [4]) | Test J disease control rating [2, 4] | Test I disease control rating [3, 4] | Test D disease control rating (Alternaria solani; [4]) | Test C disease control rating (Botrytis cinerea; [4]) | also measured |
| --- | --- | --- | --- | --- | --- | --- | --- | --- |
| Cc1cccc(-c2c(C)ncn2-c2ccc(Cl)c(F)c2)n1 [compound 375] | 32% | 0% | 92% | 62% | 68% | 26% | 99% |  |
| CCOc1ccc(F)c(-c2c(Cl)ncn2-c2cccc(F)c2)c1F [compound 661] | 0% | 87% | 99% | 100% | 100% | 99% | 99% |  |
| COc1ccc(F)c(-c2c(Cl)nc(Cl)n2-c2ccc(Cl)nc2)c1F [compound 709] | 100% | 100% | 99% | 100% | 100% | 100% | 100% |  |
| CSc1sc(-c2c(Br)nc(Br)n2-c2ccc(Cl)cc2)cc1Br [compound 408] |  |  |  |  |  |  |  | Test H disease control rating [1, 5]: 0* %; Test F disease control rating (Septoria nodorum; [5]): 0* %; Test G disease control rating (Septoria tritici; [5]): 3* %; Test J disease control rating [2, 5]: 0* %; Test I disease control rating [3, 5]: 0* %; Test D disease control rating (Alternaria solani; [5]): 0* %; Test C disease control rating (Botrytis cinerea; [5]): 0* % |
| CC(=O)Nc1ccc(-n2c(Br)nc(Cl)c2-c2c(F)cccc2F)cc1 [compound 643] |  |  |  |  |  |  |  | Test H disease control rating ([1]; 40 ppm (marked *)): 0* %; Test F disease control rating (Septoria nodorum; 40 ppm (marked *)): 0* %; Test G disease control rating (Septoria tritici; 40 ppm (marked *)): 87* %; Test J disease control rating ([2]; 40 ppm (marked *)): 0* %; Test I disease control rating ([3]; 40 ppm (marked *)): 52* %; Test D disease control rating (Alternaria solani; 40 ppm (marked *)): 0* %; Test C disease control rating (Botrytis cinerea; 40 ppm (marked *)): 0* % |
| CCOc1cc(F)c(-c2c(Cl)ncn2-c2ccc(F)cc2)c(F)c1 [compound 702] | 59% | 99% | 99% | 99% | 86% | 100% | 100% |  |
| Fc1ccc(-n2cnc(Br)c2-c2c(F)ccc(F)c2F)cc1 [compound 332] | 9% | 60% | 95% | 99% | 96% | 99% | 100% |  |
| COc1cc(F)c(-c2c(Cl)nc(Cl)n2-c2cccc(OC(F)F)c2)c(F)c1 [compound 565] | 97% | 100% | 96% | 100% | 100% | 100% | 100% |  |
| COC(=O)c1ccc(-n2c(Cl)nc(Cl)c2-c2c(F)cccc2F)cc1 [compound 649] |  |  |  |  |  |  |  | Test H disease control rating ([1]; 40 ppm (marked *)): 0* %; Test F disease control rating (Septoria nodorum; 40 ppm (marked *)): 0* %; Test G disease control rating (Septoria tritici; 40 ppm (marked *)): 97* %; Test J disease control rating ([2]; 40 ppm (marked *)): 0* %; Test I disease control rating ([3]; 40 ppm (marked *)): 61* %; Test D disease control rating (Alternaria solani; 40 ppm (marked *)): 0* %; Test C disease control rating (Botrytis cinerea; 40 ppm (marked *)): 0* % |
| Cc1nc(Cl)n(-c2ccc(Cl)cn2)c1-c1c(F)cccc1F [compound 321] | 83% | 100% | 100% | 100% | 100% | 100% | 100% |  |
| COc1cc(F)c(-c2c(N(C)C)ncn2Cc2ccc(C)cc2)c(F)c1 [compound 275] |  |  |  |  |  |  |  | Test H disease control rating ([1]; 200 ppm, 0 = no control): 9%; Test F disease control rating (Septoria nodorum; 200 ppm, 0 = no control): 0%; Test G disease control rating (Septoria tritici; 200 ppm, 0 = no control): 85%; Test J disease control rating ([2]; 200 ppm, 0 = no control): 0%; Test I disease control rating ([3]; 200 ppm, 0 = no control): 74%; Test D disease control rating (Alternaria solani; 200 ppm, 0 = no control): 82%; Test C disease control rating (Botrytis cinerea; 200 ppm, 0 = no control): 100% |
| Fc1ccc(-n2cnc(Br)c2-c2c(F)cc(F)cc2F)cc1 [compound 507] | 0% | 0% | 88% | 98% | 100% | 95% | 100% |  |
| Cc1nc(Cl)c(-c2c(F)cccc2F)n1-c1ccc2ccccc2c1 [compound 303] |  |  |  |  |  |  |  | Test H disease control rating [1, 5]: 0* %; Test F disease control rating (Septoria nodorum; [5]): 98* %; Test G disease control rating (Septoria tritici; [5]): 96* %; Test J disease control rating [2, 5]: 81* %; Test I disease control rating [3, 5]: 74* %; Test D disease control rating (Alternaria solani; [5]): 99* %; Test C disease control rating (Botrytis cinerea; [5]): 100* % |
| Fc1ccc(F)c(-c2c(Cl)nc(Br)n2Cc2ccc(Cl)cc2)c1F [compound 286] |  |  |  |  |  |  |  | Test H disease control rating ([1]; 200 ppm, 0 = no control): 64%; Test F disease control rating (Septoria nodorum; 200 ppm, 0 = no control): 79%; Test G disease control rating (Septoria tritici; 200 ppm, 0 = no control): 95%; Test J disease control rating ([2]; 200 ppm, 0 = no control): 100%; Test I disease control rating ([3]; 200 ppm, 0 = no control): 99%; Test D disease control rating (Alternaria solani; 200 ppm, 0 = no control): 96%; Test C disease control rating (Botrytis cinerea; 200 ppm, 0 = no control): 99% |
| CN(C)c1ccc(-n2cnc(Cl)c2-c2c(F)cccc2F)cc1 [compound 635] |  |  |  |  |  |  |  | Test H disease control rating ([1]; 40 ppm (marked *)): 0* %; Test F disease control rating (Septoria nodorum; 40 ppm (marked *)): 0* %; Test G disease control rating (Septoria tritici; 40 ppm (marked *)): 81* %; Test J disease control rating ([2]; 40 ppm (marked *)): 0* %; Test I disease control rating ([3]; 40 ppm (marked *)): 39* %; Test D disease control rating (Alternaria solani; 40 ppm (marked *)): 0* %; Test C disease control rating (Botrytis cinerea; 40 ppm (marked *)): 99* % |
| Cc1nc(Br)c(Cc2c(F)cc(F)cc2F)n1-c1ccc(Cl)cc1 [compound 532] | 0% | 0% | 99% | 91% | 99% | 0% | 97% |  |
| COc1cc(F)c(-c2c(Br)nc(Cl)n2-c2ccc(OC)nc2)c(F)c1 [compound 710] | 99% | 100% | 98% | 98% | 100% | 100% | 100% |  |
| Fc1ccc(-n2c(Cl)nc(Br)c2-c2c(F)ccc(F)c2F)cc1 [compound 352] | 18% | 87% | 92% | 77% | 97% | 100% | 100% |  |
| Fc1cc(F)c(-c2c(Cl)ncn2-c2cccc(OC(F)(F)F)c2)c(F)c1 [compound 586] | 0% | 0% | 3% | 21% | 0% | 0% | 0% |  |
| COc1ccc(F)c(-c2c(N(C)C)ncn2Cc2ccc(Cl)cc2)c1F [compound 271] |  |  |  |  |  |  |  | Test H disease control rating ([1]; 200 ppm, 0 = no control): 0%; Test F disease control rating (Septoria nodorum; 200 ppm, 0 = no control): 0%; Test G disease control rating (Septoria tritici; 200 ppm, 0 = no control): 82%; Test J disease control rating ([2]; 200 ppm, 0 = no control): 0%; Test I disease control rating ([3]; 200 ppm, 0 = no control): 83%; Test D disease control rating (Alternaria solani; 200 ppm, 0 = no control): 9%; Test C disease control rating (Botrytis cinerea; 200 ppm, 0 = no control): 99% |
| COc1cc(F)c(-c2c(Cl)nc(Cl)n2-c2ccccc2)c(F)c1Cl [compound 428] | 0% | 0% | 99% | 100% | 100% | 100% | 100% |  |
| Cc1nc(Cl)n(-c2ccc(Cl)cc2)c1-c1c(F)ccc(F)c1F [compound 412] |  |  |  |  |  |  |  | Test H disease control rating [1, 5]: 0* %; Test F disease control rating (Septoria nodorum; [5]): 0* %; Test G disease control rating (Septoria tritici; [5]): 99* %; Test J disease control rating [2, 5]: 99* %; Test I disease control rating [3, 5]: 74* %; Test D disease control rating (Alternaria solani; [5]): 100* %; Test C disease control rating (Botrytis cinerea; [5]): 100* % |
| COc1cc(F)c(-c2c(Cl)ncn2Cc2ccc(Cl)cc2)c(F)c1 [compound 268] |  |  |  |  |  |  |  | Test H disease control rating ([1]; 200 ppm, 0 = no control): 63%; Test F disease control rating (Septoria nodorum; 200 ppm, 0 = no control): 98%; Test G disease control rating (Septoria tritici; 200 ppm, 0 = no control): 87%; Test J disease control rating ([2]; 200 ppm, 0 = no control): 75%; Test I disease control rating ([3]; 200 ppm, 0 = no control): 99%; Test D disease control rating (Alternaria solani; 200 ppm, 0 = no control): 100%; Test C disease control rating (Botrytis cinerea; 200 ppm, 0 = no control): 99% |
| COc1cc(F)c(-c2c(Cl)nc(Cl)n2C(C)c2ncc(Cl)cc2Cl)c(F)c1 (stereo not shown) [compound 727] | 15% | 0% | 89% | 21% | 74% | 0% | 98% |  |
| Fc1cc(-n2c(Br)nc(Br)c2-c2c(F)ccc(F)c2Cl)ccc1Cl [compound 459] |  |  |  |  |  |  |  | Test H disease control rating ([1]; 40 ppm (marked *)): 9* %; Test F disease control rating (Septoria nodorum; 40 ppm (marked *)): 0* %; Test G disease control rating (Septoria tritici; 40 ppm (marked *)): 95* %; Test J disease control rating ([2]; 40 ppm (marked *)): 98* %; Test I disease control rating ([3]; 40 ppm (marked *)): 98* %; Test D disease control rating (Alternaria solani; 40 ppm (marked *)): 63* %; Test C disease control rating (Botrytis cinerea; 40 ppm (marked *)): 99* % |
